Activity calls are given as the source filed them. The calls are words filed in the database; no cut-off is given here.
How the values were obtained:
Canis lupus familiaris [1] = species: Canis lupus familiaris; test: Cytotoxic activity against canine GL1 cells assessed as cell death after 24 hrs by propidium iodide staining-based FACS analysis; format: functional
CLBL-1 [2] = test: Cytotoxic activity against canine CLBL1 cells assessed as cell death after 24 hrs by propidium iodide staining-based FACS analysis; format: functional; details: Canis lupus familiaris
CLB70 [3] = test: Cytotoxic activity against canine CLB70 cells assessed as cell death after 24 hrs by propidium iodide staining-based FACS analysis; format: functional; details: Canis lupus familiaris
Jurkat [4] = test: Cytotoxic activity against human Jurkat cells assessed as cell death after 24 hrs by propidium iodide staining-based FACS analysis; format: functional
CLBL-1 [5] = test: Cytotoxic activity against canine CLBL1 cells assessed as cell death at 50 ug/ml after 24 hrs by propidium iodide staining-based FACS analysis; format: functional, Canis lupus familiaris
CLB70 [6] = test: Cytotoxic activity against canine CLB70 cells assessed as cell death at 50 ug/ml after 24 hrs by propidium iodide staining-based FACS analysis; format: functional, Canis lupus familiaris
Jurkat [7] = test: Cytotoxic activity against human Jurkat cells assessed as cell death at 50 ug/ml after 24 hrs by propidium iodide staining-based FACS analysis; format: functional
[8] = Cytotoxic activity against canine GL1 cells assessed as cell death at 50 ug/ml after 24 hrs by propidium iodide staining-based FACS analysis; format: functional, Canis lupus familiaris
CLBL-1 [9] = test: Induction of apoptosis in canine CLBL1 cells at 50 ug/ml after 24 hrs by Annexin V/FITC staining based FACS analysis; format: functional, cell-based; details: Canis lupus familiaris
CLB70 [10] = test: Induction of apoptosis in canine CLB70 cells at 50 ug/ml after 24 hrs by Annexin V/FITC staining based FACS analysis; format: functional, cell-based; details: Canis lupus familiaris
Canis lupus familiaris [11] = species: Canis lupus familiaris; test: Induction of apoptosis in canine GL1 cells at 50 ug/ml after 24 hrs by Annexin V/FITC staining based FACS analysis; format: functional, cell-based
Jurkat [12] = test: Induction of apoptosis in human Jurkat cells at 50 ug/ml after 24 hrs by Annexin V/FITC staining based FACS analysis; format: functional, cell-based
CLBL-1 [13] = test: Induction of apoptosis in canine CLBL1 cells assessed as activation of caspase-3/7 at 50 ug/ml after 24 hrs by flow cytometry; format: functional, Canis lupus familiaris
CLB70 [14] = test: Induction of apoptosis in canine CLB70 cells assessed as activation of caspase-3/7 at 50 ug/ml after 24 hrs by flow cytometry; format: functional, Canis lupus familiaris
[15] = Induction of apoptosis in canine GL1 cells assessed as activation of caspase-3/7 at 50 ug/ml after 24 hrs by flow cytometry; format: functional, Canis lupus familiaris
Jurkat [16] = test: Induction of apoptosis in human Jurkat cells assessed as activation of caspase-3/7 at 50 ug/ml after 24 hrs by flow cytometry; format: functional
CLBL-1 [17] = test: Induction of apoptosis in canine CLBL1 cells preincubated with Z-VAD-fmk pan-caspase inhibitor assessed as activation of caspase-3/7 at 50 ug/ml after 24 hrs by flow cytometry; format: functional, cell-based; details: Canis lupus familiaris
CLB70 [18] = test: Induction of apoptosis in canine CLB70 cells preincubated with Z-VAD-fmk pan-caspase inhibitor assessed as activation of caspase-3/7 at 50 ug/ml after 24 hrs by flow cytometry; format: functional, cell-based; details: Canis lupus familiaris
Canis lupus familiaris [19] = species: Canis lupus familiaris; test: Induction of apoptosis in canine GL1 cells preincubated with Z-VAD-fmk pan-caspase inhibitor assessed as activation of caspase-3/7 at 50 ug/ml after 24 hrs by flow cytometry; format: functional, cell-based
Jurkat [20] = test: Induction of apoptosis in human Jurkat cells preincubated with Z-VAD-fmk pan-caspase inhibitor assessed as activation of caspase-3/7 at 50 ug/ml after 24 hrs by flow cytometry; format: functional, cell-based
Canis lupus familiaris [21] = species: Canis lupus familiaris; test: Induction of apoptosis in canine GL1 cells assessed as downregulation of Bcl-xl expression at 25 ug/ml after 24 hrs by Western blot analysis; format: functional, cell-based
Jurkat [22] = test: Induction of apoptosis in human Jurkat cells assessed as downregulation of Bcl-xl expression at 25 ug/ml after 24 hrs by Western blot analysis; format: functional, cell-based
CLBL-1 [23] = test: Induction of apoptosis in canine CLBL1 cells assessed as downregulation of Bcl-xl expression at 50 ug/ml after 24 hrs by Western blot analysis; format: functional, cell-based; details: Canis lupus familiaris
CLB70 [24] = test: Induction of apoptosis in canine CLB70 cells assessed as downregulation of Bcl-xl expression at 50 ug/ml after 24 hrs by Western blot analysis; format: functional, cell-based; details: Canis lupus familiaris
Canis lupus familiaris [25] = species: Canis lupus familiaris; test: Induction of apoptosis in canine GL1 cells assessed as downregulation of Bcl-xl expression at 50 ug/ml after 24 hrs by Western blot analysis; format: functional, cell-based
Jurkat [26] = test: Induction of apoptosis in human Jurkat cells assessed as downregulation of Bcl-xl expression at 50 ug/ml after 24 hrs by Western blot analysis; format: functional, cell-based
CLB70 [27] = test: Induction of apoptosis in canine CLB70 cells assessed as cleavage of Bid at 25 to 50 ug/ml after 24 hrs by Western blot analysis; format: functional, cell-based; details: Canis lupus familiaris
Canis lupus familiaris [28] = species: Canis lupus familiaris; test: Induction of apoptosis in canine GL1 cells assessed as cleavage of Bid at 25 to 50 ug/ml after 24 hrs by Western blot analysis; format: functional, cell-based
Jurkat [29] = test: Induction of apoptosis in human Jurkat cells assessed as cleavage of Bid at 25 to 50 ug/ml after 24 hrs by Western blot analysis; format: functional, cell-based
Jurkat [30] = test: Induction of apoptosis in human Jurkat cells assessed as cleavage of PARP1 at 25 to 50 ug/ml after 24 hrs by Western blot analysis; format: functional, cell-based
CLBL-1 [31] = test: Induction of apoptosis in canine CLBL1 cells assessed as cleavage of PARP1 at 50 ug/ml after 24 hrs by Western blot analysis; format: functional, cell-based; details: Canis lupus familiaris
CLB70 [32] = test: Induction of apoptosis in canine CLB70 cells assessed as downregulation of Bcl-2 expression at 50 ug/ml after 24 hrs by Western blot analysis; format: functional, cell-based; details: Canis lupus familiaris
CLBL-1 [33] = test: Induction of apoptosis in canine CLBL1 cells assessed as downregulation of Bcl-2 expression at 50 ug/ml after 24 hrs by Western blot analysis; format: functional, cell-based; details: Canis lupus familiaris
Canis lupus familiaris [34] = species: Canis lupus familiaris; test: Induction of apoptosis in canine GL1 cells assessed as downregulation of Bcl-2 expression at 50 ug/ml after 24 hrs by Western blot analysis; format: functional, cell-based
Jurkat [35] = test: Induction of apoptosis in human Jurkat cells assessed as downregulation of Bcl-2 expression at 50 ug/ml after 24 hrs by Western blot analysis; format: functional, cell-based
CLB70 [36] = test: Induction of apoptosis in canine CLB70 cells assessed as cleavage of PARP1 at 25 to 50 ug/ml after 24 hrs by Western blot analysis; format: functional, cell-based; details: Canis lupus familiaris
CLBL-1 [37] = test: Induction of apoptosis in canine CLBL1 cells assessed as downregulation of Bcl-xl expression at 25 to 50 ug/ml after 24 hrs by Western blot analysis; format: functional, cell-based; details: Canis lupus familiaris
CLB70 [38] = test: Induction of apoptosis in canine CLB70 cells assessed as downregulation of Bcl-xl expression at 25 to 50 ug/ml after 24 hrs by Western blot analysis; format: functional, cell-based; details: Canis lupus familiaris
Canis lupus familiaris [39] = species: Canis lupus familiaris; test: Induction of apoptosis in canine GL1 cells assessed as downregulation of Bcl-xl expression at 25 to 50 ug/ml after 24 hrs by Western blot analysis; format: functional, cell-based
Jurkat [40] = test: Induction of apoptosis in human Jurkat cells assessed as downregulation of Bcl-xl expression at 25 to 50 ug/ml after 24 hrs by Western blot analysis; format: functional, cell-based
CLBL-1 [41] = test: Induction of apoptosis in canine CLBL1 cells assessed as downregulation of Bcl-2 expression at 25 to 50 ug/ml after 24 hrs by Western blot analysis; format: functional, cell-based; details: Canis lupus familiaris
CLB70 [42] = test: Induction of apoptosis in canine CLB70 cells assessed as downregulation of Bcl-2 expression at 25 to 50 ug/ml after 24 hrs by Western blot analysis; format: functional, cell-based; details: Canis lupus familiaris
Canis lupus familiaris [43] = species: Canis lupus familiaris; test: Induction of apoptosis in canine GL1 cells assessed as downregulation of Bcl-2 expression at 25 to 50 ug/ml after 24 hrs by Western blot analysis; format: functional, cell-based
Jurkat [44] = test: Induction of apoptosis in human Jurkat cells assessed as downregulation of Bcl-2 expression at 25 to 50 ug/ml after 24 hrs by Western blot analysis; format: functional, cell-based
CLBL-1 [45] = test: Induction of apoptosis in canine CLBL1 cells assessed as cleavage of Bid at 25 to 50 ug/ml after 24 hrs by Western blot analysis; format: functional, cell-based; details: Canis lupus familiaris

## Cc1ccc(C)c([C@H]2CC(=O)O[C@@H]2[C@@H](C)I)c1
Canis lupus familiaris [1]
  Activity: Dose-dependent effect
CLBL-1 [2]
  Activity: Dose-dependent effect
CLB70 [3]
  Activity: Dose-dependent effect
Jurkat [4]
  Activity: Dose-dependent effect
CLBL-1 [5]
  Activity: 80%
CLB70 [6]
  Activity: 60%
Jurkat [7]
  Activity: 60%
[8]
  Activity: 60%
CLBL-1 [9]
  Activity: Active
CLB70 [10]
  Activity: Active
Canis lupus familiaris [11]
  Activity: Active
Jurkat [12]
  Activity: Active
CLBL-1 [13]
  Activity: 78.89%
CLB70 [14]
  Activity: 55.8%
[15]
  Activity: 58.47%
Jurkat [16]
  Activity: 66.93%
CLBL-1 [17]
  Activity: inactive
CLB70 [18]
  Activity: inactive
Canis lupus familiaris [19]
  Activity: inactive
Jurkat [20]
  Activity: inactive
Canis lupus familiaris [21]
  Activity: inactive
Jurkat [22]
  Activity: inactive
CLBL-1 [23]
  Activity: inactive
CLB70 [24]
  Activity: Active
Canis lupus familiaris [25]
  Activity: Active
Jurkat [26]
  Activity: Active
CLB70 [27]
  Activity: Active
Canis lupus familiaris [28]
  Activity: Active
Jurkat [29]
  Activity: inactive
Jurkat [30]
  Activity: Active
CLBL-1 [31]
  Activity: Active
CLB70 [32]
  Activity: Active
CLBL-1 [33]
  Activity: inactive
Canis lupus familiaris [34]
  Activity: Active
Jurkat [35]
  Activity: Active
CLB70 [36]
  Activity: Active

## Cc1ccc(C)c([C@@H]2CC(=O)O[C@H]2[C@H](C)I)c1
Canis lupus familiaris [1]
  Activity: Dose-dependent effect
CLBL-1 [2]
  Activity: Dose-dependent effect
CLB70 [3]
  Activity: Dose-dependent effect
Jurkat [4]
  Activity: Dose-dependent effect
CLBL-1 [5]
  Activity: 80%
CLB70 [6]
  Activity: 25%
Jurkat [7]
  Activity: 25%
[8]
  Activity: 25%
CLBL-1 [9]
  Activity: Active
CLB70 [10]
  Activity: Active
Canis lupus familiaris [11]
  Activity: Active
Jurkat [12]
  Activity: Active
CLBL-1 [13]
  Activity: 73.53%
CLB70 [14]
  Activity: 30.04%
[15]
  Activity: 20.35%
Jurkat [16]
  Activity: 32.35%
CLBL-1 [17]
  Activity: inactive
CLB70 [18]
  Activity: inactive
Canis lupus familiaris [19]
  Activity: inactive
Jurkat [20]
  Activity: inactive
CLBL-1 [37]
  Activity: inactive
CLB70 [38]
  Activity: Active
Canis lupus familiaris [39]
  Activity: Active
Jurkat [40]
  Activity: Active
CLBL-1 [41]
  Activity: inactive
CLB70 [42]
  Activity: Active
Canis lupus familiaris [43]
  Activity: Active
Jurkat [44]
  Activity: Active
Jurkat [29]
  Activity: inactive
CLBL-1 [45]
  Activity: Active
Jurkat [30]
  Activity: Active
CLBL-1 [31]
  Activity: Active
CLB70 [36]
  Activity: Active
